From article PMC3478282, “Probing the Putative Active Site of YjdL: An Unusual Proton-Coupled Oligopeptide Transporter from E. coli” (PLoS ONE, 2012)
Residue numbers refer to the chain shown, from its start. Residues, ends and D or L forms follow the SMILES beside them.

What was measured:
Type in all cases: cell-based, E. coli
WT-YjdL = biological target: T1, WT-YjdL (Escherichia coli, UniProt P39276); assay: cell-based; details: for IC50: IC50 (inhibition of β-Ala-Lys(AMCA) uptake)
T1 construct: expressed in transfected cells; host or cells: E. coli BL21(DE3)pLysS, pTTQ18-yjdL, IPTG-induced
T1 sequence (P39276 1-485): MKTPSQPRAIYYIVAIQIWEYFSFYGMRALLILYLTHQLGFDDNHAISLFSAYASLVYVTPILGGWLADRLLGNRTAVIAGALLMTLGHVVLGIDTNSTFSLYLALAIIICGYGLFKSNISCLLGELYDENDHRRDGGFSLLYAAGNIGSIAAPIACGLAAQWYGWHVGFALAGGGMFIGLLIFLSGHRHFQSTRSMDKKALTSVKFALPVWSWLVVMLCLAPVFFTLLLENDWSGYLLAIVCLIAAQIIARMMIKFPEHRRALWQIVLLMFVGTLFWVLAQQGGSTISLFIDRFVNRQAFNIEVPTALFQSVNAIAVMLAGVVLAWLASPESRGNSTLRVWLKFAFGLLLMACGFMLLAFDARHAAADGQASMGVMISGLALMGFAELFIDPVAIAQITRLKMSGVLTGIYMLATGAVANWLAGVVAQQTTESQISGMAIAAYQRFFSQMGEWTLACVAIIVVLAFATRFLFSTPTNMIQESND
Protocol: Plasmids were transformed into E. coli BL21(DE3)pLysS cells by heat shock and transformants were selected on agar plates containing 100 µg/mL ampicillin and 34 µg/mL chloramphenicol. Single transformants were inoculated into 2 mL LB-media with antibiotics as above and grown overnight. The cultures were diluted 1∶50 in 5 mL LB-media with antibiotics as above, and at an OD600 of 0.5–0.8 protein expression was induced by the addition of 1 mM isopropyl β-D-1-thiogalactopyranoside (IPTG). […]
(§1) Uptake assays were performed as previously described, [20]. In a final assay volume of 100 µL; 0.2 mM β-Ala-Lys-N-7-amino-4-methylcoumarin-3-acetic acid (β-Ala-Lys(AMCA), Biotrend) (10 µL) and various concentrations of ligands (purchased from Bachem or Sigma-Aldrich) or uptake buffer (50 µL) were incubated with bacterial cell suspension (OD600 = 10, 40 µL) at 37°C. After 5 min, the uptake was stopped by addition of 500 µL ice-cold uptake buffer followed by immediate centrifugation and washing twice in ice-cold uptake buffer. Finally the cell pellet was resuspended in 100 µL uptake buffer, and the uptake was quantified by fluorescence measurements (excitation at 340 nm and emission at 460 nm) on a Safire 2 fluorimeter. Non-specific uptake was measured as described above on IPTG-induced E. coli BL21(DE3)pLysS cells harboring the empty pTTQ18 vector. All uptake assay experiments were reproduced at least three times independently and data analyses were performed using GraphPad Prism ver. 5.

YjdL Tyr21Phe = biological target: T2, YjdL Tyr21Phe (Escherichia coli, UniProt P39276, Y21F); assay: β-Ala-Lys(AMCA) uptake and inhibition assay, YjdL Tyr21Phe; details: 0.2 mM β-Ala-Lys(AMCA), 5 min incubation, pH 6.5; ±SEM, n≥3
T2 construct: expressed in transfected cells; host or cells: E. coli BL21(DE3)pLysS, pTTQ18-yjdL mutant (QuikChange)
T2 sequence (P39276 1-485 Y21F): T1 sequence (P39276 1-485) with Y21F
Protocol: (§2) Plasmids were transformed into E. coli BL21(DE3)pLysS cells by heat shock and transformants were selected on agar plates containing 100 µg/mL ampicillin and 34 µg/mL chloramphenicol. Single transformants were inoculated into 2 mL LB-media with antibiotics as above and grown overnight. The cultures were diluted 1∶50 in 5 mL LB-media with antibiotics as above, and at an OD600 of 0.5–0.8 protein expression was induced by the addition of 1 mM isopropyl β-D-1-thiogalactopyranoside (IPTG). The cells were harvested after three hours of induction by centrifugation and resuspended in uptake buffer (50 mM MES pH 6.5, 140 mM NaCl, 5.4 mM KCl, 1.8 mM CaCl2, 0.8 mM MgSO4, and 5 mM glucose).
as §1

YjdL Tyr113Phe = biological target: T3, YjdL Tyr113Phe (Escherichia coli, UniProt P39276, Y113F); assay: β-Ala-Lys(AMCA) uptake and inhibition assay, YjdL Tyr113Phe; details: for IC50: 0.2 mM β-Ala-Lys(AMCA), 5 min incubation, pH 6.5, ±SEM, n≥3
T3 construct: expressed in transfected cells; host or cells: E. coli BL21(DE3)pLysS, pTTQ18-yjdL mutant (QuikChange)
T3 sequence (P39276 1-485 Y113F): T1 sequence (P39276 1-485) with Y113F
Protocol: as §2, §1

Compound	IC50 at pH 6.5 (50 mM MES) relative to previous studies at pH 7.4 (25 mM Tris/HEPES), WT-YjdL (WT-YjdL)	IC50 (WT-YjdL; WT-YjdL a) [µM]	IC50 (WT-YjdL; WT-YjdL b) [µM]	IC50 (YjdL Tyr21Phe) [µM]	IC50 (YjdL Tyr113Phe) [µM]	Kt (WT-YjdL; WT YjdL, data not shown) [mM]	increase of β-Ala-Lys(AMCA) uptake, YjdL Tyr113Phe (YjdL Tyr113Phe; 0.2 mM, 5 min, pH 6.5 (Figure 3)) [fold]
C[C@H](N)C(=O)N[C@@H](C)C(=O)O [Ala-Ala] (H-Ala-Ala-OH)	eight	2800 ± 600	2200 ± 100	4500 ± 300	1900 ± 100		
C[C@H](N)C(=O)N[C@@H](CCCCN)C(=O)O [Ala-Lys] (H-Ala-Lys-OH)		280 ± 10	890 ± 160	450 ± 70	340 ± 40		
C[C@H](NC(=O)[C@@H](N)Cc1ccc(O)cc1)C(=O)O [Tyr-Ala]	same	2400 ± 400	2400 ± 200	4700 ± 800	1300 ± 300		
β-Ala-Lys-N-7-amino-4-methylcoumarin-3-acetic acid [β-Ala-Lys(AMCA)]						~5	~2
